Experimental data published in US20250145631A1, “HETEROCYCLIC COMPOUND ACTING ON G12D MUTANT KRAS PROTEIN” (Astellas Pharma Inc., priority 2022, published 2025).

Columns and labels:
Format in all cases: cell-based
[1] = test system: phosphorylation of ERK (Thr202/Tyr204); test: ERK phosphorylation inhibitory effect by Cell ELISA in AsPC-1 cells (Test Example 2); conditions: Homo sapiens; for IC50: ASPC1, overnight treatment, Cell ELISA, read-out: IC50 (ERK phosphorylation inhibition)
Protocol: The ERK phosphorylation inhibitory effect of test compounds was evaluated by measuring phosphorylation of threonine 202 (Thr202) and tyrosine 204 (Tyr204) of ERK located downstream of the KRAS signal by Cell ELISA.
AsPC-1 cells were seeded on 384-well plates at 20 µL/well to give 2.0×10^4 cells per well. As for the cell culture conditions, RPMI 1640 medium containing 10% fetal bovine serum was used in the presence of 5% CO2 at 37° C.
The next day, the test compounds (10 points having final concentrations in the range of 10 μM to 0.3 nM), trametinib (MEK inhibitor) of a final concentration of […] as positive control and DMSO, which was the solvent for the test compounds, as negative control were diluted 500-fold with a fresh medium and were added at 20 μL per well. The cells were cultured overnight. After culturing, 30% glyoxal solution (40% glyoxal [from Nacalai Tesque]was diluted with PBS) was quickly added at 30 μL per well, and the plates were allowed to stand for 120 minutes at room temperature to thus immobilize the cells. Then, the plates were centrifuged to remove the supernatant (using a centrifugal dehydrator machine, the supernatant was removed by the same method hereinafter), and 0.10% Triton X-100-containing PBS was added at 20 μL per well. After allowing to stand for 10 minutes at room temperature, the supernatant was removed, and the same operation was further repeated. Next, 0.5% SDS-containing PBS was added at 20 μL per well, and after allowing to stand at room temperature for 30 minutes, the supernatant was removed. Subsequently, blocking solution (Intercept Blocking Buffer) was added at 20 μL per well, and the plates were allowed to stand for 1 hour at room temperature. The supernatant was removed, and an ERK (Thr202/Tyr204) phosphorylation antibody (Phospho-p44/42 MAPK (Erk 1/2) (Thr202/Tyr204) (D13.14.4E) XP Rabbit mAb; from Cell Signaling Technology) diluted 2,500-fold with blocking solution was added at 15 μL per well as a primary antibody. The plates were allowed to stand at 4° C. overnight.
The next day, the supernatant was removed. 0.05% Tween-20 (from Thermo Fisher Scientific)-containing PBS was added at 50 μL per well, and the supernatant was removed to thus wash each well. The washing was performed three times in total. After washing, Goat anti-Rabbit IgG H&L (IRDye 800CW) diluted 1,000-fold with blocking solution was added at 15 μL per well as a secondary antibody, and the plates were allowed to stand for 1 hour at room temperature. The supernatant was removed, and each well was washed three times with 0.05% Tween-20-containing PBS in the same manner as after the primary antibody reaction. After removing the supernatant, the plates were dried with air at room temperature for 3 hours or more, and the 800-nm fluorescent signals were measured with Aerius.
With the signaling value at the time of addition of DMSO taken as 100% and with the signaling value at the time of addition of […] trametinib taken as 0%, the 50% inhibitory concentration values (IC50) were calculated by Sigmoid-Emax nonlinear regression analysis. The calculated 50% inhibition represents the inhibition at the highest concentration evaluated (10 μM) for a compound that exceeds the concentration in the evaluation range.
(§1) In the tables presented below, Ex represents Example No. The IC50 of Ex. 13, Ex. 15, and Ex. 16 were calculated using the molecular weights as tetrahydrochloride, and the IC50 of Ex. 14 was calculated using the molecular weight as trihydrochloride.

[2] = test system: human G12D mutant KRAS-positive pancreatic cancer line AsPC-1; test: Non-anchorage-dependent cell growth inhibitory effect, spheroid 3D culture (Test Example 3); conditions: ASPC1, 144 h, AsPC-1 spheroid 3D culture, 6 days; for IC50: CellTiter Glo 2.0, read-out: IC50 (non-anchorage-dependent cell growth inhibition); for inhibition at 10 µM: read-out: cell growth inhibition at the highest concentration evaluated
Protocol: The non-anchorage-dependent cell growth inhibitory effect of test compounds was evaluated by spheroid 3D cell culture.
AsPC-1 cells were seeded on low-cell-adhesive round bottom 384-well plates (PrimeSurface: from Sumitomo Bakelite) at 20 μL (or […])/well to give 5×10^2 cells per well. As for the cell culture conditions, RPMI 1640 medium containing 10% fetal bovine serum was used in the presence of 5% CO2 at 37° C.
The next day, the test compounds (10 points or 6 points having final concentrations in the range of 10 μM to 0.3 nM) and DMSO, which was the solvent for the test compounds, as a negative control were diluted 500-fold (or 100-fold) with a fresh medium and were added at 20 μL (or […]) per well. After culturing in the presence of 5% C02 at 37° C. for 6 days, CellTiter Glo 2.0 (from Promega) was added at 20 μL per well. After stirring with a plate mixer (from FINEPCR) at normal temperature for 1 hour, the luminescent signals were measured with ARVO X3 (from PerkinElmer).
With the signaling value in treatment with DMSO taken as 100% and with the signaling value in the medium alone without cells taken as 0%, the 50% inhibitory concentration values (IC50) were calculated by Sigmoid-Emax nonlinear regression analysis. The calculated 50% inhibition represents the inhibition at the highest concentration evaluated (10 μM) for a compound that exceeds the concentration in the evaluation range.
as §1

KRAS G12D = molecular target: T1, KRAS G12D (Homo sapiens, UniProt P01116, G12D); test: KRAS degradation activity by Cell ELISA in AsPC-1 cells (Test Example 1); conditions: for Dmax: ASPC1, overnight treatment, read-out: Dmax (degradation rate at the concentration showing highest degradation); for Dmax / DC50: Cell ELISA; for DC50: overnight treatment, read-out: DC50 (50% degradation concentration of KRAS)
T1 construct: host or cells: AsPC-1 (human pancreatic cancer line)
T1 sequence (P01116 1-188 isoform P01116-2 G12D): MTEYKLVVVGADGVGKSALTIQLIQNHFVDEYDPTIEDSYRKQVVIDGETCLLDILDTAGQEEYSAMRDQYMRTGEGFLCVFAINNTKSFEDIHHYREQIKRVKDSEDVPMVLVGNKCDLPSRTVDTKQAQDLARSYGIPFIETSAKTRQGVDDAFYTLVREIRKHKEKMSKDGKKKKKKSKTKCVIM
Protocol: The KRAS degradation activity of test compounds was evaluated by measuring the expression levels of KRAS G12D by Cell ELISA.
AsPC-1 cells were seeded at 20 μL per well on 384-well plates (from Greiner bio-one) to give 2.0×10^4 cells per well. As for the cell culture conditions, RPMI 1640 (from Sigma-Aldrich) medium containing 10% fetal bovine serum (from Cytiva) was used in the presence of 5% CO2 at 37° C.
The next day, the test compounds (10 points having final concentrations in the range of 10 μM to 0.3 nM) and DMSO (from FUJIFILM Wako Pure Chemical Corporation), which was the solvent for the test compounds, as a negative control were diluted 500-fold with a fresh medium and were added at 20 μL per well. The cells were cultured overnight. The next day, the culture supernatant was removed, and 4% paraformaldehyde phosphate buffer (from FUJIFILM Wako Pure Chemical Corporation) was added at 20 μL per well. The plates were allowed to stand for 30 minutes at room temperature to thus immobilize the cells. Then, the supernatant was removed, and 0.1% Triton X-100 (from Amersham Biosciences)-containing Phosphate buffered saline (PBS; from FUJIFILM Wako Pure Chemical Corporation) was added at 20 μL per well. After allowing to stand for 10 minutes at room temperature, the supernatant was removed. PBS was added at 25 μL per well, and the supernatant was removed to thus wash each well. The washing was performed twice in total. Next, the supernatant was removed, and 0.5% sodium dodecyl sulfate (SDS; from Invitrogen)-containing PBS was added at 20 μL per well. After allowing to stand at room temperature for 10 minutes, the supernatant was removed by a centrifugal operation (using a centrifugal dehydrator machine, the supernatant was removed by the same method hereinafter). PBS was added at 25 μL per well, and the supernatant was removed to thus wash each well. The washing was performed twice in total. The supernatant was removed, and blocking solution (Intercept Blocking Buffer; from Li—COR Biosciences) was added at 20 μL per well. After allowing to stand for 30 minutes at room temperature, the supernatant was removed, and a solution obtained by diluting anti-β-actin antibody (Anti-beta Actin antibody [mAbcam 8226]-Loading Control; from abcam) 1,000-fold with blocking solution and a solution obtained by diluting anti-Ras (G12D Mutant Specific) antibody (Ras (G12D Mutant Specific) (D8H7) Rabbit mAb #14429; from Cell Signaling Technology) and anti-β-actin antibody (from abcam) 1,000-fold with blocking solution were respectively added to positive control wells and the other wells at 15 μL per well as a primary antibody. The plates were allowed to stand overnight at 4° C.
The next day, the supernatant was removed. PBS was added at 25 μL per well, and the supernatant was removed to thus wash each well. The washing was performed twice in total. The supernatant was removed, and a solution obtained by diluting Donkey anti-Mouse IgG H&L (IRDye 680RD) (from Li—COR Biosciences) and Goat anti-Rabbit IgG H&L (IRDye 800CW) (from Li—COR Biosciences) 1,000-fold with blocking solution was added at 15 μL per well as a secondary antibody. A solution obtained by diluting Donkey anti-Mouse IgG H&L (IRDye 680RD) (from Li—COR Biosciences) 1,000-fold with blocking solution was added to a positive control well as a secondary antibody. After allowing to stand for 1 hour at room temperature, the supernatant was removed. PBS was added at […], and the supernatant was removed to thus wash each well. The washing was performed twice in total. After removing the supernatant, the plates were dried with air at room temperature for 2 hours or more, and the 700 nm and 800 nm fluorescent signals were measured with Aerius (from Li—COR Biosciences). […]

SMILES | IC50 [1] [nM] | IC50 [2] [nM] | Dmax (KRAS G12D) [%] | DC50 (KRAS G12D) [nM] | degradation rate at the highest concentration evaluated (printed in DC50 column) (KRAS G12D; at 10 μM) [% at 10 μM] | inhibition at 10 µM [2] [%] | inhibition at 10 µM ([1]; ASPC1, at 10 μM, read-out: ERK phosphorylation inhibition at the highest concentration evaluated) [%]
Cc1c(F)cc2[nH]ncc2c1-c1c(C2CC2)cc2c(N3C[C@@H]4C[C@H]3CN4)nc(OC3CCOCC3)nc2c1OCc1ccc(C(=O)N2CCC(CN3CCN(c4cc5c(cc4F)C(=O)N(C4CCC(=O)NC4=O)C5=O)CC3)CC2)cc1 (stereo partly drawn) [Example 2] | 4770 | – | 59 | 4900 | – | 55 | –
Cc1c(F)cc2[nH]ncc2c1-c1c(C2CC2)cc2c(N3C[C@@H]4C[C@H]3CN4)nc(OC3CCOCC3)nc2c1OCc1ccc(C(=O)N2C[C@H]3C[C@@H]2CN3Cc2ccc3c(c2)C(=O)N(C2CCC(=O)NC2=O)C3=O)cc1 (stereo partly drawn) [Example 4] | – | – | 40 | – | 40 | 22 | 33
Cc1c(F)cc2[nH]ncc2c1-c1c(C2CC2)cc2c(N3C[C@@H]4C[C@H]3CN4)nc(OC3CCOCC3)nc2c1OCc1ccc(C(=O)N2C3CCC2CN(Cc2ccc4c(c2)C(=O)N(C2CCC(=O)NC2=O)C4=O)C3)cc1 (stereo partly drawn) [Example 5, 5-[(8-{4-[({(7M)-6-cyclopropyl-4-[(1S,4S)-2,5-diazabicyclo[2.2.1]heptan-2-yl]-7-(6-fluoro-5-methyl-1H-indazol-4-yl)-2-[(oxan-4-yl)oxy]quinazolin-8-yl}oxy)methyl]benzoyl}-3,8-diazabicyclo[3.2.1]octan-3-yl)methyl]-2-(2,6-dioxopiperidin-3-yl)-1H-isoindole-1,3(2H)-dione] | 329 | 490 | 84 | 308 | – | – | –
Cc1c(F)cc2[nH]ncc2c1-c1c(C2CC2)cc2c(N3C[C@@H]4C[C@H]3CN4)nc(OC3CCOCC3)nc2c1OCc1ccc(C(=O)N2CCN(Cc3cccc4c3oc(=O)n4C3CCC(=O)NC3=O)CC2)cc1 (stereo partly drawn) [Example 6] | 3940 | – | 49 | 2730 | – | 50 | –

The remaining compounds from weak to strong by IC50 [1], led by results:

IC50 [1] [nM] | IC50 [2] [nM] | Dmax (KRAS G12D) [%] | DC50 (KRAS G12D) [nM] | degradation rate at the highest concentration evaluated (printed in DC50 column) (KRAS G12D; at 10 μM) [% at 10 μM] | SMILES | inhibition at 10 µM [2] [%] | inhibition at 10 µM ([1]; ASPC1, at 10 μM, read-out: ERK phosphorylation inhibition at the highest concentration evaluated) [%]
3360 | – | 59 | 1950 | – | Cc1c(F)cc2[nH]ncc2c1-c1c(C2CC2)cc2c(N3C[C@@H]4C[C@H]3CN4)nc(OC3CCOCC3)nc2c1OCc1ccc(C(=O)N2CCN(Cc3ccc4c(c3)C(=O)N(C3CCC(=O)NC3=O)C4=O)CC2)cc1 (stereo partly drawn) [Example 1] | 37 | –
200 | 476 | 85 | 202 | – | Cc1c(F)cc2[nH]ncc2c1-c1c(C2CC2)cc2c(N3C[C@@H]4C[C@H]3CN4)nc(OC3CCOCC3)nc2c1OCc1ccc(C(=O)N2CCN(Cc3ccn4c(N5CCC(=O)NC5=O)cnc4c3)C[C@@H]2C)cc1 (atropisomer, axis not shown; (M)) [Example 34, 1-(7-{[(3S)-4-{4-[({(7M)-6-cyclopropyl-4-[(1S,4S)-2,5-diazabicyclo[2.2.1]heptan-2-yl]-7-(6-fluoro-5-methyl-1H-indazol-4-yl)-2-[(oxan-4-yl)oxy]quinazolin-8-yl}oxy)methyl]benzoyl}-3-methylpiperazin-1-yl]methyl}imidazo[1,2-a]pyridin-3-yl)-1,3-diazinane-2,4-dione] | – | –
94 | 120 | 83 | 53 | – | Cc1c(F)cc2[nH]ncc2c1-c1c(C2CC2)cc2c(N3C[C@@H]4C[C@H]3CN4)nc(OC3CCOCC3)nc2c1OCc1ccc(C(=O)N2CCN(Cc3ccc4c(c3)oc(=O)n4C3CCC(=O)NC3=O)CC2)cc1 (stereo partly drawn) [Example 3] | – | –
69 | 90 | 65 | 55 | – | Cc1c(F)cc2[nH]ncc2c1-c1c(C2CC2)cc2c(N3C[C@@H]4C[C@H]3CN4)nc(OC3CCOCC3)nc2c1OCc1ccc(C(=O)N2CCN(Cc3ccc4c(c3)n(C)c(=O)n4C3CCC(=O)NC3=O)C[C@H]2C)cc1 (stereo partly drawn) [Example 9] | – | –
60 | 73 | 80 | 35 | – | Cc1c(F)cc2[nH]ncc2c1-c1c(C2CC2)cc2c(N3C[C@@H]4C[C@H]3CN4)nc(OC3CCOCC3)nc2c1OCc1ccc(C(=O)N2CCN(Cc3ccc4c(c3)n(C)c(=O)n4C3CCC(=O)NC3=O)CC2)cc1 (stereo partly drawn) [Example 7] | – | –
